Measured values from patent publication US10106510B2, “Substituted isoxazoles for treating cancer” (EPIZYME, INC., priority 2014, dated 2018).

molecular target: SMYD3 (Homo sapiens (Human), UniProt Q9H7B4); experiment: SMYD3 biochemical assay (SMYD3 enzyme assay on MEKK2 protein substrate, scintillation proximity assay); details: 3H-SAM, SPA, IC50 values are an average of n = 1 to n = 50, read-out: SMYD3 Biochem IC50
From the text: S-adenosylmethionine (SAM), S-adenosylhomocysteine (SAH), Tris, Tween20, dimethylsulfoxide (DMSO), bovine skin gelatin (BSG), and Tris(2-carboxyethyl)phosphine hydrochloride solution (TCEP) were purchased from Sigma-Aldrich at the highest level of purity possible. ^3H-SAM was purchase from American Radiolabeled Chemicals with a specific activity of 80 Ci/mmol. 384-well opaque white OptiPlates and SPA beads (Perkin Elmer, catalog # RPNQ0013) were purchased from PerkinElmer.
N-terminally GST-tagged MEKK2 (MAP3K2) protein corresponding to reference sequence AAF63496.3 was purchased from Life Technologies (catalog # PV4010). […] Protein identity was confirmed by MS/MS analysis after proteolytic digestion. The protein sequence used was:
Full-length human SMYD3 isoform 1 (BAB86333) was inserted into a modified pET21b plasmid containing a His6 tag and TEV and SUMO cleavage sites. Because two common variants of SMYD3 exist in the population, site directed mutagenesis was subsequently performed to change amino acid 13 from an asparagine to a lysine, resulting in plasmid pEPZ533.
E. coli (BL21 codonplus RIL strain, Stratagene) were transformed with plasmid pEPZ553 by mixing competent cells and plasmid DNA and incubating on ice for 30minutes followed by heat shock at 42° C. for 1 minute and cooling on ice for 2 minutes. Transformed cells were grown and selected on LB agar with 100 μg/mL ampicillin and 17 μg/mL chloramphenicol at 37° C. overnight. A single clone was used to inoculate 200 mL of LB medium with 100 μg/mL ampicillin and 17 μg/mL chloramphenicol and incubated at 37° C. on an orbital shaker at 180 rpm. Once in log growth, the culture was diluted 1:100 into 2 L of LB medium and grown until OD600 was about 0.3 after which the culture was incubated at 15° C. and 160 rpm. Once OD600 reached about 0.4, IPTG was added to a final concentration of 0.1 mM and the cells were grown overnight at 15° C. and 160 rpm. Cells were harvested by centrifugation at 8000 rpm, for 4 minutes at 4° C. and stored at −80° C. for purification.
The column was washed with Buffer B (Buffer A plus 20 mM imidazole) and His-tagged SMYD3 was eluted with Buffer C (Buffer A plus 300 mM imidazole). The His tag, TEV and SUMO cleavage sites were removed generating native SMYD3 by addition of ULP1 protein at a ratio of 1:200 (ULP1:SMYD3). Imidazole was removed by dialysis overnight in Buffer A. The dialyzed solution was applied to a second Nickel column and the native SMYD3 protein was collected from the column flow-through. The flow-through was dialyzed in Buffer D (25 mM Tris, 5% glycerol, 5 mM β-mercaptoethanol, 50 mM NaCl, pH7.8) and ULP1 was removed using a Q sepharose fast flow column.
General Procedure for SMYD3 Enzyme Assays on MEKK2 Protein Substrate
The assays were all performed in a buffer consisting of 25 mM Tris-Cl pH 8.0, 1 mM TCEP, 0.005% BSG, and 0.005% Tween 20, prepared on the day of use. Compounds in 100% DMSO (1 ul) were spotted into a 384-well white opaque OptiPlate using a Bravo automated liquid handling platform outfitted with a 384-channel head (Agilent Technologies). DMSO (1 ul) was added to Columns 11, 12, 23, 24, rows A-H for the maximum signal control and 1 ul of SAH, a known product and inhibitor of SMYD3, was added to columns 11, 12, 23, 24, rows I-P for the minimum signal control. A cocktail (40 ul) containing the SMYD3 enzyme was added by Multidrop Combi (Thermo-Fisher). The compounds were allowed to incubate with SMYD3 for 30 min at room temperature, then a cocktail (10 ul) containing SAM and MEKK2 was added to initiate the reaction (final volume=51 ul).

SMYD3, sequence (Q9H7B4 whole entry): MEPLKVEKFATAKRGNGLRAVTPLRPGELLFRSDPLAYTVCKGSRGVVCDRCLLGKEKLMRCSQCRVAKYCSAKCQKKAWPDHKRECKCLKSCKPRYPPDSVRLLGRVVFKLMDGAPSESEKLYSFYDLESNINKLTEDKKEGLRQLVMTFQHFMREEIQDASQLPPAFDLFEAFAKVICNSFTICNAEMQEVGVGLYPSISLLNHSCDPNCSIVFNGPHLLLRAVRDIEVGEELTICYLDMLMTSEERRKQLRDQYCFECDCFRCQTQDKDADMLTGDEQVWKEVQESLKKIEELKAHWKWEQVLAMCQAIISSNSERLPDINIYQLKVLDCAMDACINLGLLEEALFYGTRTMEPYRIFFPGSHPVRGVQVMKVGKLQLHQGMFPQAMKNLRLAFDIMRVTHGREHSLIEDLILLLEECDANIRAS

In order of falling IC50:
1. NCCC(=O)N[C@H]1CC[C@H](N(CCc2ccccc2)C(=O)c2cc(C3CC3)on2)CC1 [compound 42, N-((1r,4r)-4-(3-aminopropanamido)cyclohexyl)-5-cyclopropyl-N-phenethylisoxazole-3-carboxamide]  10.8 µM
2. N[C@H]1C[C@@H](C(=O)N[C@H]2CC[C@H](NC(=O)c3cc(C4CC4)on3)CC2)C1 [compound 14, N-((1R,4r)-4-((1s,3S)-3-aminocyclobutane-1-carboxamido)cyclohexyl)-5-cyclopropylisoxazole-3-carboxamide]  1.18 µM
3. CC(CN)C(=O)N[C@H]1CC[C@H](NC(=O)c2cc(C3CC3)on2)CC1 (stereo partly drawn) [compound 8, N-((1r,4r)-4-(3-amino-2-methylpropanamido)cyclohexyl)-5-cyclopropylisoxazole-3-carboxamide]  0.654 µM
4. N[C@@H]1CC[C@H](C(=O)N[C@H]2CC[C@H](NC(=O)c3cc(C4CC4)on3)CC2)C1 [compound 21, N-((1S,4r)-4-((1S,3R)-3-aminocyclopentane-1-carboxamido)cyclohexyl)-5-cyclopropylisoxazole-3-carboxamide]  0.511 µM
5. NCCCN[C@H]1CC[C@H](NC(=O)c2cc(C3CC3)on2)CC1 [compound 23, N-((1r,4r)-4-((3-aminopropyl)amino)cyclohexyl)-5-cyclopropylisoxazole-3-carboxamide]  0.342 µM
6. CCc1cc(C(=O)N[C@H]2CC[C@H](NC(=O)C[C@H](C)N)C[C@H]2CC)no1 (mixture of isomers) [compound 7, Mixture of N-((1S,2R,4S)-4-((S)-3-aminobutanamido)-2-ethylcyclohexyl)-5-ethylisoxazole-3-carboxamide and N-((1R,2S,4R)-4-((S)-3-aminobutanamido)-2-ethylcyclohexyl)-5-ethylisoxazole-3-carboxamide; (1S,2R,4S) isomer depicted]  0.17 µM
